Where “and” joins values, the source holds several entries; their conditions need not be identical. Equal entries are not always repeated.
Assay: Pygas-water partition coefficient determination (simulated pygas / de-ionized water, HPLC-MS)
Format: physicochemical
Settings: for [HTMPO] (ppm) in Undiluted Phase, Average / [sBuPDA] (ppm) in Undiluted Phase, Average / [HTMPOH] (ppm) in Undiluted Phase, Average: average of 3 trials ± standard uncertainty; for [HTMPO] (ppm) in Undiluted Phase / [sBuPDA] (ppm) in Undiluted Phase / [HTMPOH] (ppm) in Undiluted Phase: individual trials 1-3; for [HTMPO] (ppm) in Undiluted Phase: inhibitor 1.0 wt % total; for Partition Ratio (pygas/aqueous): simulated pygas vs de-ionized water, ± standard uncertainty
Experimental: Pygas-water partition coefficients are determined by measuring the concentration of a polymerization inhibitor in a pygas-water mixture. In some embodiments, a pygas from an actual process water sample is used as the pygas in the determination; in some such embodiments, an actual process water is used. In other embodiments, a simulated pygas is formed and water is added to the simulated pygas for the determination. For purposes of providing measurements related to the disclosures herein, a simulated pygas consisting essentially of a mixture of toluene, styrene, cyclohexane, n-hexane, and dicyclopentadiene is employed. Partition coefficient is determined by mixing equal volumes of de-ionized water and simulated pygas, then adding a potential polymerization inhibitor at a concentration range of about 0.1 wt % to 5 wt %, in some embodiments, followed by a period of vigorous mixing, then a period of standing undisturbed to allow the phases to separate; the relative concentration of a species in each phase determines the partition coefficient. For purposes of partition coefficients recited herein, the test is conducted at a target inhibitor concentration of 1 wt % (10,000 ppm) followed by vigorous mixing for 30 minutes, followed by allowing the mixture to stand substantially unperturbed for 30 minutes. The pygas and aqueous phases that result in the unperturbed mixture are separated and concentration of the potential polymerization inhibitor in each phase is quantified, for example by high performance liquid chromatography coupled with mass spectrometry analysis (HPLC-MS). The partition ratio, or partition coefficient, of the potential polymerization inhibitor between the pygas and aqueous phases is then calculated according to the formula
[formula] where P is the partition coefficient, [I]pygas is the concentration of the potential polymerization inhibitor in the pygas phase, and [I]aqueous is the concentration of potential polymerization inhibitor in the aqueous phase.
The partition ratio of the polymerization inhibitor […]-2,2,6,6-tetramethylpiperidinyl-1-oxyl (HTMPO) between pygas and aqueous phases was determined by the following procedure. HTMPO was added to a mixture of equal volumes of de-ionized water and simulated pyrolysis gasoline (pygas). The simulated pygas consisted of a mixture of toluene, styrene, cyclohexane, n-hexane, and dicyclopentadiene. The amounts of inhibitor and liquid phases used were such that the inhibitor was present at a total concentration of 1.0 wt % based on the weight of the combined phases.
The system consisting of the inhibitor, pygas phase, and aqueous phase was vigorously stirred for thirty minutes, after which time it was allowed to sit undisturbed for an additional thirty minutes. The immiscible pygas and aqueous phases were then separated.
A stock solution of known concentration of HTMPO in acetonitrile was diluted with water/acetonitrile to give five different solutions at concentrations spanning an appropriate working range of a high performance liquid chromatograph (HPLC) coupled to a mass spectrometer with an electrospray ionization (ESI) source. The five dilute solutions were analyzed as standards using HPLC-MS, and the areas of the peaks corresponding to HTMPO in these solutions were used to construct a calibration curve of peak area vs. concentration (mass fraction, ppm).
The pygas phase of unknown concentration of HTMPO, separated from the aqueous phase in the first part of the experiment, was diluted with water/acetonitrile to give a solution whose concentration was within the range of the calibration curve. The dilute pygas solution was analyzed by HPLC-MS, and the concentration of HTMPO in this pygas solution was calculated by interpolation of its HTMPO peak area into the calibration curve. The concentration of HTMPO in the original, undiluted pygas phase was calculated by applying the dilution factor to the interpolated concentration of the diluted solution. […]

CC1(C)CC(O)CC(C)(C)N1[O] [HTMPO, 4-hydroxy-2,2,6,6-tetramethylpiperidinyl-1-oxyl]
[HTMPO] (ppm) in Undiluted Phase, Average (Aqueous Phase): 7410.8 ± 453.5 ppm | [HTMPO] (ppm) in Undiluted Phase (Aqueous Phase): 7155.2 ppm and 7142.9 ppm and 7934.4 ppm | Partition Ratio (pygas/aqueous) (HTMPO): 0.079 ± 0.008 | [HTMPO] (ppm) in Undiluted Phase, Average (Pygas Phase): 582.8 ± 47.0 ppm | [HTMPO] (ppm) in Undiluted Phase (Pygas Phase, equal volumes de-ionized water and simulated pygas): 597.8 ppm and 530.2 ppm and 620.5 ppm

CCC(C)Nc1ccc(NC(C)CC)cc1 (stereo not drawn) [sBuPDA, N,N′-di-sec-butyl-1,4-phenylenediamine]
[sBuPDA] (ppm) in Undiluted Phase, Average (Aqueous Phase): 0.29 ± 0.03 ppm | [sBuPDA] (ppm) in Undiluted Phase (Aqueous Phase): 0.29 ppm and 0.26 ppm and 0.32 ppm | [sBuPDA] (ppm) in Undiluted Phase, Average (Pygas Phase): 4075 ± 161.6 ppm | [sBuPDA] (ppm) in Undiluted Phase (Pygas Phase): 4218.2 ppm and 4109.2 ppm and 3900.2 ppm | Partition Ratio (pygas/aqueous) (sBuPDA): 14000 ± 2000

CC1(C)CC(O)CC(C)(C)N1O [HTMPOH, 1,4-dihydroxy-2,2,6,6-tetramethylpiperidine]
[HTMPOH] (ppm) in Undiluted Phase, Average (Aqueous Phase): 2829.8 ± 79.0 ppm | [HTMPOH] (ppm) in Undiluted Phase (Aqueous Phase): 2807.5 ppm and 2764.3 ppm and 2917.6 ppm | Partition Ratio (pygas/aqueous) (HTMPOH): 0.0096 ± 0.0003 | [HTMPOH] (ppm) in Undiluted Phase, Average (Pygas Phase): 27.2 ± 0.6 ppm | [HTMPOH] (ppm) in Undiluted Phase (Pygas Phase): 27.8 ppm and 26.6 ppm and 27.2 ppm
